Test results from patent publication EP1859811B1, “Use of conjugates of amatoxins or phallotoxins with macromolecules for tumor and inflammation therapy” (Faulstich, Heinz, Dr., priority 2006, dated 2007).

Tests used:
Jurkat cells = assay: apoptosis in cultures of Jurkat cells incubated with toxin; type: cell-based; conditions: own unpublished results
Text: Amatoxins (α-amanitin, β-amanitin, amanin) are cyclic peptides composed of 8 amino acids. They can be isolated from Amanita phalloides mushrooms or prepared from the building blocks by synthesis. Amatoxins inhibit specifically the DNA-dependent RNA polymerase II of mammalian cells, and by this transcription and protein biosynthesis of the cells affected. Inhibition of transcription in a cell causes stop of growth and proliferation. Though not covalently bound, the complex between amanitin and RNA-polymerase II is very tight (KD = 3nM). Dissociation of amanitin from the enzyme is a very slow process what makes recovery of an affected cell unlikely.
Phallotoxins (phalloidin, phallacidin, aminophalloidin) are cyclic peptides composed of 7 aminoacids. They bind specifically to the cytoskeletal protein actin in its polymeric form (microfilaments). By this, they prevent depolymerization of the microfilaments and disturb the proper function of the actin cytoskeleton. The actin cytoskeleton is a dense meshwork of microfilaments undergoing, under the control of actin-associated proteins, rapid cycles of assembly and disassembly essential for dynamic processes such as cell division and migration. Likewise, invasion by metastatic cells is thought to be dependent on actin. […]

actin = assay: binding to actin
Jurkat = assay: inhibition of proliferation by [3H]thymidine incorporation, Jurkat; type: cell-based; conditions: Jurkat cells (CD3); Fig.3
Description: Monoclonal antibodies were conjugated with ß-amanitin-N-hydoxysuccinimide ester by incubating the antibody in PBS (2mg/mL) with 10-30 equivalents of the activated ß-amanitin derivative at 4°C under gentle shaking. After reaction for 16h the protein derivative was separated from unreacted amanitin by gelfiltration chromatography on Sephadex G25 using PBS as solvent. The combined protein fractions were concentrated to a protein concentration of ca 2 mg/mL and a toxin concentration of ca. 5 x 10^-5M. The ratio toxin : mAB was in the range of 5-15 : 1.
Three different cell lines, MCF-7, Jurkat, and Raji, exposing the specific receptors EpCAM, CD3, and CD71, respectively, were tested for the inhibition of proliferation by such ß-amanitin-monoclonal antibody conjugates, as followed by [^3H]thymidine incorporation. […] In all cases was amanitin conjugated to a specific antibody distinctly more toxic to the corresponding cell line than free amanitin, or amanitin conjugated to unspecific antibodies.

[1] = target: DNA-dependent RNA polymerase II of mammalian cells (Homo sapiens, UniProt P24928+P30876); conditions: complex between amanitin and RNA-polymerase II; cited from earlier work

Substance: α-amanitin
- programmed cell death (apoptosis) (Jurkat cells): undergoes programmed cell death (apoptosis)

Substance: thiopropionyl-aminophalloidin
- actin binding compared with phalloidin (actin): binds actin as tightly as phalloidin itself

Substance: OKT3
- times more inhibitory for the proliferation than the amanitin conjugate of an unspecific monoclonal antibody (ALH-419) (Jurkat): 330 times

Substance: amanitin
- Kd [1]: 3 nM

Substance: phalloidin oleate
- programmed cell death (apoptosis) (Jurkat cells): caused apoptosis
